Results published in ChEMBL document CHEMBL1201862, “PubChem BioAssay data set” (2004).
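Grown in 96-well plates, cells were treated for 48 hours with each compound at five concentrations. Insufficient inhibition: endpoint recorded as highest concentration tested. Abbreviation: GI50, concentration required for 50% inhibition of growth.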 Active and inactive are the calls of the source. Rule as the data show it: active = GI50 up to about 1.1 µM and inactive = higher.

Columns and labels:
Assay in all cases: NCI-60 cell line screen, 48 h
NCI-H23 = tested on: NCI-H23
OVCAR-3 = tested on: OVCAR-3
SN12C = tested on: SN12C
SNB-19 = tested on: SNB-19
SK-MEL-2 = tested on: SK-MEL-2
DU-145 = tested on: DU-145
HT-29 = tested on: HT-29
MCF7 = tested on: MCF7
HOP-92 = tested on: HOP-92
OVCAR-8 = tested on: OVCAR-8
SR = tested on: SR
MDA-MB-435 = tested on: MDA-MB-435
RPMI-8226 = tested on: RPMI-8226
SNB-75 = tested on: SNB-75
HOP-62 = tested on: HOP-62
UACC-62 = tested on: UACC-62
CAKI-1 = tested on: CAKI-1
K562 = tested on: K562
LOX IMVI = tested on: LOX IMVI
NCI-H226 = tested on: NCI-H226
ACHN = tested on: ACHN
SW-620 = tested on: SW-620
UO-31 = tested on: UO-31
SF-295 = tested on: SF-295
HCT-116 = tested on: HCT-116
SK-OV-3 = tested on: SK-OV-3
Malme-3M = tested on: Malme-3M
HL-60 = tested on: HL-60
PC-3 = tested on: PC-3
COLO 205 = tested on: COLO 205
U-251 = tested on: U-251
MDA-N = tested on: MDA-N
KM12 = tested on: KM12
UACC-257 = tested on: UACC-257
NCI-H522 = tested on: NCI-H522
NCI/ADR-RES = tested on: NCI/ADR-RES
OVCAR-5 = tested on: OVCAR-5
A549 = tested on: A549
SK-MEL-5 = tested on: SK-MEL-5
MOLT-4 = tested on: MOLT-4
A498 = tested on: A498
MDA-MB-231 = tested on: MDA-MB-231
CCRF-CEM = tested on: CCRF-CEM
SK-MEL-28 = tested on: SK-MEL-28
786-0 = tested on: 786-0
RXF 393 = tested on: RXF 393
BT-549 = tested on: BT-549
IGROV-1 = tested on: IGROV-1
SF-539 = tested on: SF-539
M14 = tested on: M14
EKVX = tested on: EKVX
NCI-H460 = tested on: NCI-H460
Hs-578T = tested on: Hs-578T
SF-268 = tested on: SF-268
HCT-15 = tested on: HCT-15
HCC 2998 = tested on: HCC 2998
OVCAR-4 = tested on: OVCAR-4
T47D = tested on: T47D
TK-10 = tested on: TK-10

SMILES: COc1ccc(C2=Nc3c(nc(SC)[nH]c3=O)NC(c3ccccc3)C2)cc1 (centres undefined)
- GI50 (NCI-H23): 20.6 µM (inactive)
- GI50 (OVCAR-3): 27.5 µM (inactive)
- GI50 (SN12C): 20.9 µM (inactive)
- GI50 (SNB-19): 23.8 µM (inactive)
- GI50 (SK-MEL-2): 29.1 µM (inactive)
- GI50 (DU-145): 25.2 µM (inactive)
- GI50 (HT-29): 21.8 µM (inactive)
- GI50 (MCF7): 17.1 µM (inactive)
- GI50 (HOP-92): 46.3 µM (inactive)
- GI50 (OVCAR-8): 19.4 µM (inactive)
- GI50 (SR): 73.3 µM (inactive)
- GI50 (MDA-MB-435): 29.2 µM (inactive)
- GI50 (RPMI-8226): 27.2 µM (inactive)
- GI50 (SNB-75): 17.8 µM (inactive)
- GI50 (HOP-62): 35.4 µM (inactive)
- GI50 (UACC-62): > 10 µM (inactive)
- GI50 (CAKI-1): 17.1 µM (inactive)
- GI50 (K562): 25.1 µM (inactive)
- GI50 (LOX IMVI): 30.5 µM (inactive)
- GI50 (NCI-H226): 26.2 µM (inactive)
- GI50 (ACHN): 21.8 µM (inactive)
- GI50 (SW-620): 44.9 µM (inactive)
- GI50 (UO-31): 20.8 µM (inactive)
- GI50 (SF-295): 27.4 µM (inactive)
- GI50 (HCT-116): 30.9 µM (inactive)
- GI50 (SK-OV-3): 18.1 µM (inactive)
- GI50 (Malme-3M): 37.1 µM (inactive)
- GI50 (HL-60): 18.1 µM (inactive)
- GI50 (PC-3): 33.7 µM (inactive)
- GI50 (COLO 205): 19.6 µM (inactive)
- GI50 (U-251): 18.9 µM (inactive)
- GI50 (MDA-N): 16.9 µM (inactive)
- GI50 (KM12): 16.6 µM (inactive)
- GI50 (UACC-257): 22.9 µM (inactive)
- GI50 (NCI-H522): 17.1 µM (inactive)
- GI50 (NCI/ADR-RES): 20 µM (inactive)
- GI50 (OVCAR-5): 34.5 µM (inactive)
- GI50 (A549): 24 µM (inactive)
- GI50 (SK-MEL-5): 16.6 µM (inactive)
- GI50 (MOLT-4): 18.7 µM (inactive)
- GI50 (A498): 33.3 µM (inactive)
- GI50 (MDA-MB-231): 14.3 µM (inactive)
- GI50 (CCRF-CEM): 29 µM (inactive)
- GI50 (SK-MEL-28): > 10 µM (inactive)
- GI50 (786-0): 26.3 µM (inactive)
- GI50 (RXF 393): 20.7 µM (inactive)
- GI50 (BT-549): 24.8 µM (inactive)
- GI50 (IGROV-1): 19.5 µM (inactive)
- GI50 (SF-539): 19.4 µM (inactive)
- GI50 (M14): 25.4 µM (inactive)
- GI50 (EKVX): 24.4 µM (inactive)

SMILES: O=C1CCc2cc3c(cc21)CC1(Cc2ccccc2C1)C3
- GI50 (NCI-H23): 26.9 µM (inactive)
- GI50 (OVCAR-3): 8.75 µM (inactive)
- GI50 (NCI-H460): 6.31 µM (inactive)
- GI50 (SN12C): 19.9 µM (inactive)
- GI50 (Hs-578T): 52.1 µM (inactive)
- GI50 (SNB-19): 27.2 µM (inactive)
- GI50 (SK-MEL-2): 2.11 µM (inactive)
- GI50 (DU-145): 20.8 µM (inactive)
- GI50 (HT-29): 3.14 µM (inactive)
- GI50 (MCF7): 9.29 µM (inactive)
- GI50 (HOP-92): 6.32 µM (inactive)
- GI50 (SF-268): 37.8 µM (inactive)
- GI50 (OVCAR-8): 24.9 µM (inactive)
- GI50 (SR): 1.86 µM (inactive)
- GI50 (MDA-MB-435): 2.58 µM (inactive)
- GI50 (RPMI-8226): 6.27 µM (inactive)
- GI50 (HCT-15): 13.8 µM
- GI50 (SNB-75): 15.7 µM (inactive)
- GI50 (HOP-62): 9.73 µM (inactive)
- GI50 (UACC-62): 21.1 µM (inactive)
- GI50 (CAKI-1): 0.703 µM (active)
- GI50 (K562): 2.09 µM (inactive)
- GI50 (LOX IMVI): 8.02 µM (inactive)
- GI50 (NCI-H226): 12.9 µM (inactive)
- GI50 (ACHN): 19.8 µM (inactive)
- GI50 (SW-620): 4.34 µM (inactive)
- GI50 (UO-31): 4.02 µM (inactive)
- GI50 (SF-295): 6.43 µM (inactive)
- GI50 (HCT-116): 4.08 µM (inactive)
- GI50 (SK-OV-3): 14 µM (inactive)
- GI50 (HCC 2998): 8.75 µM (inactive)
- GI50 (Malme-3M): 16.8 µM (inactive)
- GI50 (HL-60): 2.43 µM (inactive)
- GI50 (PC-3): 14.2 µM (inactive)
- GI50 (COLO 205): 3.79 µM (inactive)
- GI50 (OVCAR-4): 50.1 µM (inactive)
- GI50 (U-251): 7.96 µM (inactive)
- GI50 (MDA-N): 2.16 µM (inactive)
- GI50 (KM12): > 22.4 µM (inactive)
- GI50 (UACC-257): 19.6 µM (inactive)
- GI50 (NCI-H522): 9.14 µM (inactive)
- GI50 (NCI/ADR-RES): 7.31 µM (inactive)
- GI50 (OVCAR-5): 16.3 µM (inactive)
- GI50 (T47D): 20.2 µM (inactive)
- GI50 (A549): 12 µM (inactive)
- GI50 (SK-MEL-5): 5.77 µM (inactive)
- GI50 (MOLT-4): 0.678 µM (active)
- GI50 (A498): 12.2 µM (inactive)
- GI50 (TK-10): 30.3 µM (inactive)
- GI50 (MDA-MB-231): 12 µM (inactive)
- GI50 (CCRF-CEM): 2.98 µM (inactive)
- GI50 (SK-MEL-28): 10.3 µM (inactive)
- GI50 (786-0): 36.3 µM (inactive)
- GI50 (RXF 393): 33 µM (inactive)
- GI50 (IGROV-1): 4.3 µM (inactive)
- GI50 (SF-539): 9.12 µM (inactive)
- GI50 (M14): 14.9 µM (inactive)
- GI50 (EKVX): > 27.3 µM (inactive)
